# Paper PMC6680768, “Synthesis and Preclinical Evaluation of Radio-Iodinated GRPR/PSMA Bispecific Heterodimers for the Theranostics Application in Prostate Cancer” (Pharmaceutics, 2019)
# Legend:
# PSMA [1] = biological target: T1, PSMA (Homo sapiens, UniProt Q04609); experiment: Binding inhibition of [^111In]In-PSMA-617 on PC-3pip cells, GRPRs blocked (IC50); conditions: competitor 1 nM [^111In]In-PSMA-617, GRPRs blocked with 200 nM RM26, 4 °C, 5 h, non-iodinated heterodimers
# T1 construct: host or cells: PC-3pip (PC-3 cells transfected with PSMA)
# T1 sequence (Q04609 whole entry): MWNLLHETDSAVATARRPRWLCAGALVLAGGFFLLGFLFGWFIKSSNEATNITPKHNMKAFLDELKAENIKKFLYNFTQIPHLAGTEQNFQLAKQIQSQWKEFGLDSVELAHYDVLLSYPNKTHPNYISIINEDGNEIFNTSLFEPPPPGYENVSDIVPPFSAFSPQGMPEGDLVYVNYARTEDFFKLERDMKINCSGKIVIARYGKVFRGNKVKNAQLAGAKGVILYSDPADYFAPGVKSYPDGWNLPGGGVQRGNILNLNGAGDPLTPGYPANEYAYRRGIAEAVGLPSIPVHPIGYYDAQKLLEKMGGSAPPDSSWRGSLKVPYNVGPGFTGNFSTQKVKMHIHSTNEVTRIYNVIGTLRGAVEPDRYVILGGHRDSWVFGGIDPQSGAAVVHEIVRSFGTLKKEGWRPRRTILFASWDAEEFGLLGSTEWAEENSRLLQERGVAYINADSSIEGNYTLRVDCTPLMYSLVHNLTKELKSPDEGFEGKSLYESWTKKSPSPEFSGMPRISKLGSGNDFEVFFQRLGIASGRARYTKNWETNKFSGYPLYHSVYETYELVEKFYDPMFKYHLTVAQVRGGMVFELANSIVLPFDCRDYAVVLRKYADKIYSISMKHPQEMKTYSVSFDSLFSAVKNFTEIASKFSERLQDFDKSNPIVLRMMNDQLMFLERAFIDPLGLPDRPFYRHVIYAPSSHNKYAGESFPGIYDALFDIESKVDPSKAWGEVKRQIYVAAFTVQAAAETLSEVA
# Protocol: Cells were incubated at 4 °C for 5 h. After incubation, the cells were detached with trypsin–EDTA and the activity in cell samples was measured. Data were plotted using nonlinear regression.
# [2] = format: physicochemical
# Protocol: The octanol–water distribution coefficient was determined as described earlier. Briefly, 500 µL of Milli-Q water and 500 µL of n-octanol were added in an Eppendorf tube containing radiolabeled peptide. The tube was vortexed for 2 min and centrifuged for 20 s. Fractions of each phase were collected and their activity was measured.
# [3] = tested on: PC-3pip cells (GRPR and PSMA positive); experiment: Cellular retention of activity after interrupted incubation, PC-3pip cells; format: cell-based; conditions: 24 h
# Protocol: (§1) The cellular retention of activity after interrupted incubation was carried out on PC-3, LNCaP, and PC-3pip cells. A concentration of 20 nM of each radiolabeled heterodimer was added to the cells and the dishes were incubated at 4 °C for 2 h. The media was aspired, and the cells were further incubated with complete media at 37 °C. At predetermined time points, the media was collected, and the cells were detached with trypsin–EDTA and collected. The radioactivity content of each collected fraction was measured.
# [4] = tested on: PC-3 cells (GRPR positive); experiment: Cellular retention of activity after interrupted incubation, PC-3 cells; format: cell-based; conditions: 24 h of incubation, normalized to 0 h
# Protocol: as §1
# [5] = tested on: LNCaP cells (PSMA positive); experiment: Cellular retention of activity after interrupted incubation, LNCaP cells; format: cell-based; conditions: 24 h
# Protocol: as §1
# [6] = design: species or system Balb/c nu/nu mice; conditions: mouse, in vivo
# Protocol: (§2) The radioactivity uptake in organs was studied 1, 3, 24, and 72 h pi as described above.
# [7] = tested on: PC-3pip (GRPR and PSMA positive) xenografts; design: species or system Balb/c nu/nu mice; conditions: mouse, in vivo
# Protocol: as §2
# PSMA [8] = conditions: LNCaP xenografts, 1 h pi, p < 0.05
# Protocol: All in vivo experiments were carried out on BALB/c nu/nu mice provided by Scanbur A/S (Sweden). PC-3, LNCaP, and PC-3pip tumor xenografts were established by implanting 5 × 10^6 cells/mouse for PC-3 and PC-3pip xenografts, and 10 × 10^6 cells for LNCaP xenografts. The in vivo experiments were carried out when palpable tumors were observed. Animal weight at the moment of experiment was 20 ± 2 g, 21 ± 3 g, 14.5 ± 0.8 g, and average tumor size was 0.2 ± 0.1 g, 0.05 ± 0.04 g, 0.4 ± 0.1 g for PC-3, LNCaP, and PC-3pip models, respectively.
# In vivo specificity for the radiolabeled heterodimers was tested on mice bearing PC-3 or LNCaP xenografts. The mice were injected with 40 pmol (30 KBq) of the radiolabeled heterodimer in 1% bovine serum albumin (BSA) in PBS. For the mice in the blocked group, 7.5 nmol of either unlabeled NOTA-PEG4-RM26 or PSMA-617 was added to the radiolabeled heterodimer in order to block GRPR in PC-3 xenografted mice or PSMA in LNCaP xenografted mice, respectively. Animals were sacrificed by heart punctures exsanguination after pre-injection of Ketalar–Rompun solution (10 mg/mL Ketalar and 1 mg/mL Rompun; 20 μL solution/gram of body weight). The mice were dissected 1 h post-injection (pi) and the organs of interest were collected. The activity uptake in organs was measured.
# PSMA [9] = biological target: T1, PSMA; design: method as in PMID 25883127; conditions: cited from earlier work
SMILES,IC50 (PSMA [1]),logD [2],decrease of cell-associated activity [3],difference in tumor activity uptake between non-blocked and blocked groups (in vivo specificity to PSMA) (PSMA [8]),also measured
CC(C)C[C@H](NC(=O)C[C@H](O)[C@H](CC(C)C)NC(=O)[C@H](Cc1c[nH]cn1)NC(=O)CNC(=O)[C@@H](NC(=O)[C@H](C)NC(=O)[C@H](Cc1c[nH]c2ccccc12)NC(=O)[C@H](CCC(N)=O)NC(=O)[C@@H](Cc1ccccc1)NC(=O)CCOCCOCCNC(=O)[C@H](Cc1ccc(O)c(I)c1)n1cc(COCCOCCC(=O)NC[C@H]2CC[C@H](C(=O)N[C@@H](Cc3ccc4ccccc4c3)C(=O)NCCCC[C@H](NC(=O)N[C@@H](CCC(=O)O)C(=O)O)C(=O)O)CC2)nn1)C(C)C)C(N)=O [[^125I]I-BO530],,-0.52,20%,demonstrated significant difference,"cell-associated activity [4]: 14% ± 2%; cell associated activity from initial [5]: 60%; tissue uptake at 24 h [6]: < 1 %ID/g; area under the curve (AUC), kidneys versus tumors [7]: more than two-fold higher; area under the curve (AUC), tumor versus blood [7]: 10 fold"
CC(C)C[C@H](NC(=O)C[C@H](O)[C@H](CC(C)C)NC(=O)[C@H](Cc1c[nH]cn1)NC(=O)CNC(=O)[C@@H](NC(=O)[C@H](C)NC(=O)[C@H](Cc1c[nH]c2ccccc12)NC(=O)[C@H](CCC(N)=O)NC(=O)[C@@H](Cc1ccccc1)NC(=O)CCOCCOCCNC(=O)[C@H](Cc1ccc(O)c(I)c1)n1cc(CCCCCCCC(=O)NC[C@H]2CC[C@H](C(=O)N[C@@H](Cc3ccc4ccccc4c3)C(=O)NCCCC[C@H](NC(=O)N[C@@H](CCC(=O)O)C(=O)O)C(=O)O)CC2)nn1)C(C)C)C(N)=O [[^125I]I-BO535],,1.07,35%,failed to demonstrate in vivo specificity,
O=C([O-])CN1CCN(CC(=O)[O-])CCN(CC(=O)NCC2CCC(C(=O)N[C@@H](Cc3ccc4ccccc4c3)C(=O)NCCCC[C@H](NC(=O)N[C@@H](CCC(=O)O)C(=O)O)C(=O)O)CC2)CCN(CC(=O)[O-])CC1.[177Lu+3] (some centres unmarked) [^177Lu-PSMA-617],,,,,initial uptake in kidneys versus tumors (PSMA [9]): at least 10 fold

# Further lines, with some results ahead:
IC50 (PSMA [1]),logD [2],SMILES,decrease of cell-associated activity [3],difference in tumor activity uptake between non-blocked and blocked groups (in vivo specificity to PSMA) (PSMA [8]),also measured
98 ± 13 nM,,CC(C)C[C@H](NC(=O)C[C@H](O)[C@H](CC(C)C)NC(=O)[C@H](Cc1c[nH]cn1)NC(=O)CNC(=O)[C@@H](NC(=O)[C@H](C)NC(=O)[C@H](Cc1c[nH]c2ccccc12)NC(=O)[C@H](CCC(N)=O)NC(=O)[C@@H](Cc1ccccc1)NC(=O)CCOCCOCCNC(=O)[C@H](Cc1ccc(O)cc1)n1cc(COCCOCCC(=O)NC[C@H]2CC[C@H](C(=O)N[C@@H](Cc3ccc4ccccc4c3)C(=O)NCCCC[C@H](NC(=O)N[C@@H](CCC(=O)O)C(=O)O)C(=O)O)CC2)nn1)C(C)C)C(N)=O [BO530],,,
100 ± 10 nM,,CC(C)C[C@H](NC(=O)C[C@H](O)[C@H](CC(C)C)NC(=O)[C@H](Cc1c[nH]cn1)NC(=O)CNC(=O)[C@@H](NC(=O)[C@H](C)NC(=O)[C@H](Cc1c[nH]c2ccccc12)NC(=O)[C@H](CCC(N)=O)NC(=O)[C@@H](Cc1ccccc1)NC(=O)CCOCCOCCNC(=O)[C@H](Cc1ccc(O)cc1)n1cc(CCCCCCCC(=O)NC[C@H]2CC[C@H](C(=O)N[C@@H](Cc3ccc4ccccc4c3)C(=O)NCCCC[C@H](NC(=O)N[C@@H](CCC(=O)O)C(=O)O)C(=O)O)CC2)nn1)C(C)C)C(N)=O [BO535],,,
